Test results published in article PMC7318646 (Chemmedchem, 2020).

Experiments:
HSA [1] = target: T1, HSA (Homo sapiens, UniProt P02768); assay: switchSENSE molecular dynamics mode; conditions: compound concentration tenfold higher than KD
HSA [2] = target: T1, HSA; assay: Three-dye; format: binding; conditions: three dyes 8 μM each on HSA 25 μM

T1 sequence (P02768 25-609): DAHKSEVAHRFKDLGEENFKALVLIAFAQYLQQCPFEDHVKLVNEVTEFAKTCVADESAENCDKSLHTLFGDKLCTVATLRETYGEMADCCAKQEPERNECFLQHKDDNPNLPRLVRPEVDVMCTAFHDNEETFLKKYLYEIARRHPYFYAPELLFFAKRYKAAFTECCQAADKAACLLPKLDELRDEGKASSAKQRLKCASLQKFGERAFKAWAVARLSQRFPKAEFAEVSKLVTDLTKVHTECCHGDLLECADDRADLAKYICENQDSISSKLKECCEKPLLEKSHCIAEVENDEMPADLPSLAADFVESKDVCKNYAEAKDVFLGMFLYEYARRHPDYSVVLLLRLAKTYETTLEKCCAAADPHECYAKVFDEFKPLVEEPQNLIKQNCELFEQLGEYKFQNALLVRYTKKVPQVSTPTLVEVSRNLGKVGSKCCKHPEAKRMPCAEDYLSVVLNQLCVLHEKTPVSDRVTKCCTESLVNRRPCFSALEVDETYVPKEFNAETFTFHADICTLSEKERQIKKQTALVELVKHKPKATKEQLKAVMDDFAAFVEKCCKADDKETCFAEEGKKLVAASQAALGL

conformational change of HSA upon binding (molecular dynamics mode) (HSA [1])	displacement of dimethylamino-BODIPY 5 a (Sudlow-site II probe) (HSA [2])	displacement of warfarin derivative 8 a (Sudlow-site I probe) (HSA [2])	displacement of NBD-FA (fatty acid binding site probe) (HSA [2])	Molecule
significant expansion				(7‐nitrobenz‐2‐oxa‐1,3‐diazol‐4‐yl)‐C12 fatty acid [NBD‐FA]
	competitive	competitive		CCC(Cc1c(I)cc(I)c(O)c1I)C(=O)O (stereo not drawn) [Iophenoxic acid, iophenoxic acid]
	same behavior	same behavior	same behavior	O=C(O)CCNC(=O)c1ccc(/N=N/c2ccc(O)c(C(=O)O)c2)cc1 [balsalazide]
